Assays:
[1] = system: GSC primary cell cultures and normal NSC control cells; assay: alamarBlue cell viability after shRNA knockdown; format: cell-based, human; details: shRNA virus, puromycin selection, one week, FIG. 1A
Description: (§1) To verify the robustness and reproducibility of PHF5α loss in GSC growth inhibition, the normal NSC control cells and a panel of five GSC primary cell cultures were infected with viruses encoding three different shRNA sequences targeting PHF5α (shPHF5α-133 (SEQ ID NO.:11), shPHF5α-402 (SEQ ID NO.:10), and shPHF5α-861 (SEQ ID NO.:9)), as well as a positive control (shKIF11-555 (SEQ ID NO.:19); blocking kinesin family member 11 (KIF11) prevents centrosome migration, which arrests cells in mitosis) and negative control (shCtrl). Cultures were selected with puromycin, plated at about 1000 cells per well in 96-well plates, and incubated for one week at 37° C./5% CO2 before assaying cell viability using the alamarBlue® assay (Invitrogen, Gand Island, N.Y.). Briefly, resazurin (a blue compound that is non-toxic, cell permeable compound and essentially non-fluorescent) is added to the cell cultures, which is reduced to resorufin upon entering metabolically active cells (in contrast, non-viable or damaged cells cannot do this effectively). Resorufin is a bright red fluorescent molecule that functions as a colorimetric indicator. In addition, all three shRNA viruses were internally validated to knock down PHF5α at both the RNA and protein levels (data not shown).

[2] = system: PHF5α; assay: immunostained western blot of PHF5α protein after shRNA; format: cell-based, human; details: GSCs (G166, 0827, 0131) and NSCs, relative to shCtrl; FIG. 1B
Description: (B) is an immunostained western blot showing PHF5α protein levels are reduced in GSCs (G166, 0827, 0131) and NSCs when exposed to a short hairpin RNA (shRNA) that reduces PHF5α RNA levels (shPHF5α-133 (SEQ ID NO.:11), shPHF5α-402 (SEQ ID NO.:10), shPHF5α-861 (SEQ ID NO.:9)) relative to the levels of PHF5α in cells treated with a non-silencing control shRNA (shCtrl).
as §1

[3] = system: GSCs relative to NSCs (G166 or CB660 cells); assay: cell viability of GSC or NSC cells after SSA / SudC1 (AlamarBlue); format: cell-based, human; details: dilution series; FIGS. 3B and 3C
Description: (§2) Along with high MPM-2 staining, and little or no phosphorylated BubR1, this is consistent with a pre-anaphase arrest in which the mitotic checkpoint has not been triggered.

[4] = system: GSCs and NSCs; assay: cell cycle arrest after SSA or SudC1; format: cell-based, human; details: at doses within the efficacy window; data not shown
Description: as §2

[5] = system: H2B-GFP expressing GSCs; assay: metaphase capture assay with MG132; format: cell-based, human; details: overnight exposure to drug, then MG132 for 2 hours
Procedure: The GSC-specific G2/M arrest was characterized by performing metaphase capture assays in H2B-GFP expressing GSCs treated with proteasome inhibitor MG132, which arrests mitotic cells at metaphase, blocking APCCdc20-dependent degradation of Cyclin B (Lampson and Kapoor 2005). After overnight exposure to SudC1 or SSA, cells were treated with MG132 for 2 hours. […] It was also observed that the viability loss in drug-treated GSC cultures results from the death of previously arrested mitotic cells and not interphase GSCs, identifying the cancer-specific mitotic arrest as a causative event in cancer cell death due to splicing inhibition.

[6] = system: GSC-H2B-GFP cells; assay: live cell imaging of drug-treated cells; format: cell-based, human; details: for timing of mitoses: GSCs, first hours after drug treatment; for mitotic arrest in live cell imaging: data not shown
[7] = system: Cells expressing Ras; assay: sensitivity of Ras-expressing cells to drugs with reported splicing inhibition; format: cell-based; details: FIG. 11
[8] = biological target: U2 snRNP subunit SF3b (Homo sapiens, UniProt O75533+Q7RTV0); details: Kaida et al. 2007; Corrionero et al. 2011; cited from earlier work
[9] = system: GSCs; assay: cell cycle arrest phenotype (rounded cells) in GFP-expressing GSCs after shRNA; format: cell-based, human; details: FIG. 2
Description: Arrows point to rounded cells, which are those showing a cell arrest phenotype.
In addition, the GSC and NSC containing two of the shRNA sequences targeting PHF5α, KIF11 (positive control), and a random clone (negative control) were examined by immunofluorescence analysis using DAPI staining and a fluorescent microscope. Cells that appeared balled up are ones that suffered cell cycle arrest, while elongated cells were unaffected in their proliferation. […] In contrast, inhibition of PHF5α produced a striking phenotype of a G2/M mitotic arrest in GSCs, but not in NSCs (data not shown).
Ryzinski et al. (Cytogenet. […] Res. 121:232, 2008) identified PHF5α as a bridge protein capable of connecting members of the U2 snRNP, especially U2AF1 to RNA helicases, especially DDX1. To test whether, out of the possible known or unknown roles in a cell, the splicing functions of PHF5α is an important activity contributing to GSC survival and proliferation, shRNA knockdown similar to Example 2 was performed against each member of this bridging interaction—U2AF1 and DDX1.

[10] = system: IMR90+E1A/Ras; assay: drug response assay, alamarBlue viability; format: cell-based, human; details: 0.08-10.0 μM for 24 hours, viability at 72 hours; FIG. 9A
Description: (§3) Approximately 88% of clinical glioblastoma tumors harbor mutations that activate signaling through the Ras/PI3-kinase pathways (The Cancer Genome Atlas Research Network, Nature 455:1061, 2008). Since PHF5α inhibition is detrimental to a range of glioblastoma cell cultures, but not to the normal NSC from which most glioblastomas are thought to arise, transformation from a normal cell to a cancer cell was examined to determine whether PHF5α dependence was acquired during this process. Accordingly, Ras signaling was activated in normal IMR90 fibroblast cells by infecting with a retrovirus encoding the ElA and Ras oncogenes (EIA was included because Ras alone would be lethal in these cells). These partially transformed fibroblasts were probed for their response to shPHF5α inhibition and to a U2 snRNP splicing inhibitor (sudemycin C1). Viral shRNA knockdown was performed as described in the above examples. For drug response assays, cells were plated in 96-well plates and contacted with a range of sudemycin C1 concentrations (0.08, 0.16, 0.31, 0.63, 1.25, 2.50, 5.0 or 10.0 μM) for a period of 24 hours. Media was then removed and replaced with fresh media, then cell viability was measured 72 hours after drug exposure using the alamarBlue® assay (Invitrogen).

[11] = system: normal IMR90 fibroblast cells; assay: drug response assay, alamarBlue viability; format: cell-based, human; details: 0.08-10.0 μM for 24 hours, viability at 72 hours; FIG. 9A
Description: as §3

[12] = system: Non-transformed MEF cells; assay: viability after sudemycin treatment; format: cell-based, mouse
[13] = system: MEF cells with the addition of oncogenic Ras signaling; assay: viability after sudemycin treatment; format: cell-based, mouse
Description: as §3, with “(Invitrogen). […]” for “(Invitrogen).”

[14] = system: RNA splicing in GSCs and NSCs; assay: splicing defects on gels after SudC1; format: cell-based, human; details: GSCs versus NSCs; FIG. 16
Description: This example also describes the effects of two candidate small molecule inhibitors of the U2 snRNP complex, Spliceostatin A (SSA) and Sudemycin C1 (SudC1). […] (Kaida et al. 2007; Corrionero et al. 2011). […] It was reasoned that if the most relevant GSC-specific function of PHF5A is its function in the splicing activity of the U2 snRNP, then these drugs should show a similar pattern of effects on RNA splicing in GSCs and NSCs. This was indeed the case. […] In addition, after PHF5A knockdown, multiple constitutive exons of the well characterized RTK/Ras signaling effector RAF1 and the cancer-associated deacetylase HDAC6 were skipped GSCs but not in normal NSCs.

[15] = system: RNA splicing; details: Lagisetti et al. 2008, 2009; Fan et al. 2011; cited from earlier work

Chain of PHF5α (Q7RTV0 whole entry): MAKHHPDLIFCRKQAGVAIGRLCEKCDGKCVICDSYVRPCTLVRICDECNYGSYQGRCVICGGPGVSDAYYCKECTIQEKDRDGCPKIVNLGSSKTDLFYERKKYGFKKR

Compound: shPHF5α-133: shRNA targeting PHF5α, ACTCAACCAAGATCTTCTAAAA, SEQ ID NO. 11 (listed as DNA, chemistry not fully specified)
- proliferation of GSCs compared to NSCs [1]: greater reduction in proliferation of GSCs compared to normal neural stem cells
- PHF5α protein levels [2]: reduced

Compound: CO[C@]1(C)C[C@@]2(CO2)[C@H](O)[C@@H](/C=C/C(C)=C/C[C@@H]2O[C@H](C)[C@H](NC(=O)/C=C\[C@H](C)OC(C)=O)C[C@@H]2C)O1 [SSA, Spliceostatin A]
- viability loss in GSCs relative to NSCs [3]: greater dose-dependent viability loss in GSCs relative to NSCs
- cell cycle arrest [4]: characteristic cell cycle arrest in GSCs but not NSCs
- metaphase arrest with MG132 [5]: unable to properly arrest
- timing of mitoses [6]: did not affect the timing of mitoses for several hours after drug treatment
- mitotic arrest in live cell imaging [6]: mitotic arrest pre-metaphase
- differential sensitivity of cells expressing Ras [7]: differentially sensitive
- binding and inhibition of SF3b [8]: binds to and inhibits

Compound: DDX1-301: shRNA targeting DDX1, ACACGGTGTTCCTTATGTTATA, SEQ ID NO. 18 (listed as DNA, chemistry not fully specified)
- cell cycle arrest [9]: undergone cell cycle arrest

Compound: CCN1/C(=C/C(C)=O)Sc2ccc(OC)cc21 [TG003]
- differential sensitivity of cells expressing Ras [7]: not differentially sensitive

Compound: Clc1ccccc1C(c1ccccc1)(c1ccccc1)n1ccnc1 [Clotrimazole]
- differential sensitivity of cells expressing Ras [7]: not differentially sensitive

Compound: shPHF5α-402: shRNA targeting PHF5α, AGCATTTACTTGTTTAACACTT, SEQ ID NO. 10 (listed as DNA, chemistry not fully specified)
- proliferation of GSCs compared to NSCs [1]: greater reduction in proliferation of GSCs compared to normal neural stem cells
- PHF5α protein levels [2]: reduced

Compound: [H]/N=C(\N/C(=N/[H])NCCCCCCNC(=N)NC(=N)Nc1ccc(Cl)cc1)Nc1ccc(Cl)cc1 [chlorhexidine]
- differential sensitivity of cells expressing Ras [7]: not differentially sensitive

Compound: Sudemycin C1 [SudC1]
- viability loss in GSCs relative to NSCs [3]: greater dose-dependent viability loss in GSCs relative to NSCs
- cell cycle arrest [4]: characteristic cell cycle arrest in GSCs but not NSCs
- metaphase arrest with MG132 [5]: unable to properly arrest
- timing of mitoses [6]: did not affect the timing of mitoses for several hours after drug treatment
- mitotic arrest in live cell imaging [6]: mitotic arrest pre-metaphase
- sensitivity of cell viability [10]: greatly sensitized
- sensitivity of cell viability [11]: relatively resistant
- sensitivity of cell viability [12]: relatively resistant
- sensitivity of cell viability [13]: greatly sensitized
- differential sensitivity of cells expressing Ras [7]: differentially sensitive
- splicing defects [14]: dose-dependent GSC-specific splicing defects
- modulation of RNA splicing [15]: modulates RNA splicing

Compound: Pladienolide B
- differential sensitivity of cells expressing Ras [7]: differentially sensitive

Compound: Fc1ccc(C(c2ccc(F)cc2)N2CCN(C/C=C/c3ccccc3)CC2)cc1 [flunarizine]
- differential sensitivity of cells expressing Ras [7]: not differentially sensitive

Compound: shU2AF1-100: shRNA targeting U2AF1, CGGCTGTGATTGACTTGAATAA, SEQ ID NO. 1 (listed as DNA, chemistry not fully specified)
- cell cycle arrest [9]: undergone cell cycle arrest

Compound: shPHF5α-861: shRNA targeting PHF5α, CGCCCACTAGTCTCATATTATT, SEQ ID NO. 9 (listed as DNA, chemistry not fully specified)
- proliferation of GSCs compared to NSCs [1]: greater reduction in proliferation of GSCs compared to normal neural stem cells
- PHF5α protein levels [2]: reduced
- cell cycle arrest [9]: undergone cell cycle arrest
